In patent publication US12077503B2, “Substituted cyclic amides and their use as herbicides” (FMC CORPORATION, priority 2015, dated 2024):

Key:
Assay type in all cases: in vivo
Kochia (Kochia scoparia) = test: Test A preemergence; conditions: Bassia scoparia, pre-emergence, 240 h, read-out: Plant response rating, Kochia
Procedure, shortened: (§1)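 Seeded soil received test chemicals as a preemergence directed spray, and seedlings at one to two leaves, 2–10 cm tall, received them postemergence, in a non-phytotoxic, surfactant-containing solvent mixture. Pots were held in a greenhouse for approximately 10 d, then rated for injury from 0, no effect, to 100, complete control.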

[1] = tested on: barnyardgrass (Echinochloa crus-galli); test: Test A preemergence; conditions: Echinochloa crus-galli, pre-emergence, 240 h, read-out: Plant response rating, Barnyardgrass
Procedure, shortened: as §1

[2] = tested on: giant foxtail (Setaria faberii); test: Test A preemergence; conditions: Setaria faberi, pre-emergence, 240 h, read-out: Plant response rating, Foxtail, Giant
Procedure, shortened: as §1

[3] = tested on: pigweed (Amaranthus retroflexus); test: Test A preemergence; conditions: Amaranthus retroflexus, pre-emergence, 240 h, read-out: Plant response rating, Pigweed
[4] = tested on: ragweed (common ragweed, Ambrosia elatior); test: Test A preemergence; conditions: Ambrosia artemisiifolia, pre-emergence, 240 h, read-out: Plant response rating, Ragweed
Procedure, shortened: as §1

[5] = tested on: ryegrass, Italian (Italian ryegrass, Lolium multiflorum); test: Test A preemergence; conditions: Lolium multiflorum, pre-emergence, 240 h, read-out: Plant response rating, Ryegrass, Italian
Procedure, shortened: as §1

[6] = tested on: Galium (catchweed bedstraw, Galium aparine); test: Test A postemergence; conditions: Galium, post-emergence, 240 h, read-out: Plant response rating, Galium
Procedure, shortened: as §1

[7] = tested on: barnyardgrass (Echinochloa crus-galli); test: Test A postemergence; conditions: Echinochloa crus-galli, post-emergence, 240 h, read-out: Plant response rating, Barnyardgrass
Procedure, shortened: as §1

[8] = tested on: blackgrass (Alopecurus myosuroides); test: Test A postemergence; conditions: Alopecurus myosuroides, post-emergence, 240 h, read-out: Plant response rating, Blackgrass
Procedure, shortened: as §1

corn (Zea mays) = test: Test A postemergence; conditions: Zea mays, post-emergence, 240 h
Procedure, shortened: as §1

[9] = tested on: giant foxtail (Setaria faberii); test: Test A postemergence; conditions: Setaria faberi, post-emergence, 240 h, read-out: Plant response rating, Foxtail, Giant
Procedure, shortened: as §1

[10] = tested on: pigweed (Amaranthus retroflexus); test: Test A postemergence; conditions: Amaranthus retroflexus, post-emergence, 240 h, read-out: Plant response rating, Pigweed
Procedure, shortened: as §1

[11] = tested on: ragweed (common ragweed, Ambrosia elatior); test: Test A postemergence; conditions: Ambrosia artemisiifolia, post-emergence, 240 h, read-out: Plant response rating, Ragweed
Procedure, shortened: as §1

[12] = tested on: ryegrass, Italian (Italian ryegrass, Lolium multiflorum); test: Test A postemergence; conditions: Lolium multiflorum, post-emergence, 240 h, read-out: Plant response rating, Ryegrass, Italian
Procedure, shortened: as §1

[13] = tested on: wheat (Triticum aestivum); test: Test A postemergence; conditions: Triticum aestivum, post-emergence, 240 h, read-out: Plant response rating, Wheat
Procedure, shortened: as §1

[14] = 125 g ai/ha, Preemergence, visual injury after approximately 10 d, 0 to 100 scale where 0 is no effect and 100 is complete control
[15] = 500 g ai/ha, preemergence, 0 to 100 scale, 0 = no effect, 100 = complete control
[16] = 125 g ai/ha, postemergence, visual rating after approx. 10 d, 0 to 100 scale (0 no effect, 100 complete control)
[17] = Postemergence, 500 g ai/ha, 0 to 100 scale where 0 is no effect and 100 is complete control

Compound CN1C[C@H](c2ccc(C(F)(F)F)cc2)[C@@H](C(=O)Nc2ccccc2F)C1=O [Compound 622, (3S,4S)—N-(2-fluorophenyl)-1-methyl-2-oxo-4-[4-(trifluoromethyl)phenyl]-3-pyrrolidinecarboxamide] has a pest or weed control at 125 g/ha (Kochia (Kochia scoparia); [14]) of 80%, a pest or weed control at 500 g/ha (Kochia (Kochia scoparia); [15]) of 80% and a pest or weed control at 125 g/ha [1, 14] of 90%. It also gave a pest or weed control at 500 g/ha [1, 15] of 90%, a pest or weed control at 125 g/ha [2, 14] of 90% and a pest or weed control at 500 g/ha [2, 15] of 90%. The pest or weed control at 125 g/ha [3, 14] was 80%, the pest or weed control at 500 g/ha [3, 15] was 80% and the pest or weed control at 125 g/ha [4, 14] was 60%. The pest or weed control at 500 g/ha [4, 15] was 60%, the pest or weed control at 125 g/ha [5, 14] was 40% and the pest or weed control at 500 g/ha [5, 15] was 40%. It also gave a pest or weed control at 125 g/ha [6, 16] of 60%, a pest or weed control at 500 g/ha [6, 17] of 70% and a pest or weed control at 125 g/ha [7, 16] of 90%. For the same compound, the pest or weed control at 500 g/ha [7, 17] was 90%, the pest or weed control at 125 g/ha [8, 16] was 30% and the pest or weed control at 500 g/ha [8, 17] was 60%. For the same compound, the Corn plant response rating (crop injury, 0 = no effect, 100 = complete kill) at 125 g/ha (corn (Zea mays); [16]) was 50%, the Corn plant response rating (crop injury, 0 = no effect, 100 = complete kill) at 500 g/ha (corn (Zea mays); [17]) was 70% and the pest or weed control at 125 g/ha [9, 16] was 80%. The pest or weed control at 500 g/ha [9, 17] was 90%, the pest or weed control at 125 g/ha [10, 16] was 40% and the pest or weed control at 500 g/ha [10, 17] was 50%. It also gave a pest or weed control at 125 g/ha [11, 16] of 0%, a pest or weed control at 500 g/ha [11, 17] of 40% and a pest or weed control at 125 g/ha [12, 16] of 30%. The pest or weed control at 500 g/ha [12, 17] was 50%, the plant injury at 125 g/ha [13, 16] was 30% and the plant injury at 500 g/ha [13, 17] was 70%.
